In the SangsterLogP compilation:

settings: pH 2.0

SMILES	logD
O=S(=O)(/C=C/C=C/Sc1ccccc1)c1ccccc1	4.03
Cc1ccccc1O[C@@H]1C(=O)N(Cc2ccc3c(c2)OCO3)[C@H]1c1ccc2c(c1)OCO2	4.37
O=C1[C@@H](CSCc2ccccc2)NC(=S)N1C1CCCCC1	4.58
COC(=O)C(=O)C1=C(c2ccc(Cl)cc2)NC(=O)N[C@@H]1c1ccc(Cl)cc1	3.56
COCON1C(=O)CN(C(C)=O)[C@H]1c1ccc(Cl)cc1Cl	1.98
O=C(COC(=O)/C=C/c1ccc(F)cc1)Nc1cc(C(F)(F)F)ccc1N1CCOCC1	5.08
CC[C@@H](OC(=O)CNC(=O)c1ccc(N2C(=O)c3ccccc3C2=O)cc1)C(=O)c1ccccc1	4.15
COc1ccc(N(CC(=O)N[C@@H]2CCS(=O)(=O)C2)S(=O)(=O)c2ccc(Cl)c(Cl)c2)cc1	3.32

same assay, conditions: pH 5.0

SMILES	logD
O=C1c2ccccc2C(=O)N1/N=C/c1cc([N+](=O)[O-])ccc1Cl	4.03
CCCN(CCC)S(=O)(=O)c1ccc(C(=O)OCCN2C(=O)C3C4c5ccccc5C(c5ccccc54)C3C2=O)cc1 (stereo not drawn)	4.17
CCCOc1ccc(NC(=O)C[C@H]2C(=O)N(c3ccc(Cl)cc3)C(=S)N2C2CC2)cc1	5.41
COC(=O)[C@H](CCSC)NC(=O)c1cc2c(n(-c3ccccc3)c1=O)CC(C)(C)CC2=O	3.97
CCOC(=O)CN1C(=O)[C@@H](OC(=O)c2ccccc2)[C@@H](OC(=O)c2ccccc2)C1=O	5
CC(=O)C12c3ccccc3C(c3ccccc31)[C@H]1C(=O)N(c3ccc(C)c([N+](=O)[O-])c3)C(=O)[C@@H]12	4.74
COc1ccc([C@@H]2CC(=O)N(c3sc4c(c3C#N)CCCC4)C3=C2C(=O)CCC3)c(OC)c1	4.55
COc1cccc(NC(=O)[C@H](OC(=O)C2=COCCO2)c2ccccc2)c1	3.81
COc1cc2c(cc1OC)[C@@H](COc1ccc(F)cc1)N(C(=O)/C=C/c1ccccc1)CC2	5.45
CC(=O)Nc1ccc(C(=O)N(Cc2ccco2)C2(C(=O)Nc3c(C)cccc3C)CCCCC2)cc1	4.62
COc1ccc([C@@H]2[C@H](C(=O)N3CCCCCC3)c3ccccc3C(=O)N2Cc2ccc(F)cc2)cc1	5.01
C[C@@H](NC(=O)CN(C1CCCCC1)S(=O)(=O)c1ccccc1)c1ccccc1	4.9
COc1ccc([C@H]2C(C#N)=C(N)N(c3ccc(Cl)cc3)C3=C2C(=O)CC(C)(C)C3)cc1OC	4.34
C[C@@H](NC(=O)C1CCN(C(=O)c2ccc(F)cc2)CC1)c1ccccc1	3.48
COc1ccc(N(C(=O)C2CCCCC2)S(=O)(=O)c2ccc3c4c(cccc24)C(=O)N3C)cc1	5.26
C[C@@H]1CCC2[C@]3(C)COC(C)(C)O[C@H]3CC[C@]2(C)[C@@]12CCC1(COC(=O)C1)O2 (stereo partly drawn)	4.24
O=C1[C@H]2OC[C@H](O2)[C@H]2[C@@H]1[C@@H]1C=C[C@H]2C1	1.48
COc1cccc(C(=O)N2CCC[C@H](c3ccccc3)C2)c1	4.04
COC(=O)c1ccc([C@@H]2C3=C(C[C@H](c4ccco4)CC3=O)Nc3ccccc3N2C(=O)C2CC2)cc1	4.44
Cc1ccc(-c2nc3n(n2)C(=O)C[C@H](c2cccc([N+](=O)[O-])c2)S3)cc1	4.49
CC(=O)c1c(C)[nH]c(C(=O)COC(=O)c2ccccc2NC(=O)c2ccco2)c1C	4.73
CCOC(=O)c1ccc(C#N)cc1	1.87

SMILES	logD
CSc1ccc(S(=O)(=O)N(CC(=O)NC[C@@H]2CCCO2)c2ccc(C)cc2)cc1	4.3
OCC#CC(O)(c1ccc(F)cc1)c1ccc(F)cc1	3.61
CCN(CC)S(=O)(=O)c1ccc(/C=C/C(=O)NC2CCCCC2)cc1	4.34
C=CCN1C(=S)N(c2ccc(CC)cc2)[C@H]2CS(=O)(=O)C[C@@H]21	2.86
COC(=O)N[C@H](O)C(=O)c1ccccc1	1.41
O=C(NC[C@H]1CCCO1)c1cc2nc(C3CC3)cc(C(F)(F)F)n2n1	3.33
C[C@@H]1CCCCN1C(=O)CCCCC(=O)N1CCCC[C@H]1C	3.42
O=C(NCc1ccc(F)cc1)c1nn2c(c1Br)N[C@H](c1cccs1)C[C@H]2C(F)(F)F	5.54
C[C@@H]1C=CC[C@@H]2C(=O)N(c3cccc(C(=O)OCC(=O)c4ccc(Br)cc4)c3)C(=O)[C@H]12	5.29
CC(=O)c1ccc(NC(=O)CNC(=O)CNC(=O)[C@@H]2O[C@@H]3OC(C)(C)O[C@@H]3[C@H]3OC(C)(C)O[C@H]32)cc1	3.39
CN(C)C(=O)[C@H]1OC(C)(C)O[C@@H]1C(=O)N(C)C	1.49
Cc1c(NC(=O)[C@@H]2CCCCN2S(=O)(=O)c2ccc(Cl)cc2)c(=O)n(-c2ccccc2)n1C	3.89
CCOC(=O)C1=C(C)NC(=S)N[C@@H]1c1ccc(OCc2ccc(Cl)cc2)c(OCC)c1	5.31
COc1cc(/C=C/C(=O)N[C@H]2CCCc3ccccc32)cc(OC)c1OC	4.27
CS(=O)(=O)N(CC(=O)N1CCc2ccccc2C1)c1ccc(OCc2ccccc2)cc1	4.91
CS(=O)(=O)N(CC(=O)Nc1ccccc1C(=O)NCc1ccco1)c1ccc(Cl)cc1	4.32
CCNC(=O)/C(=C/c1cn(-c2ccccc2)nc1-c1cccs1)NC(=O)c1ccccc1	4.64
CCC(=O)N1c2ccccc2NC2=C(C(=O)CC(C)(C)C2)[C@H]1c1ccc(-c2ccc([N+](=O)[O-])cc2Cl)o1	5.55
C[C@@H](Sc1nnnn1-c1ccc(Cl)cc1)C(=O)NCC(=O)Nc1ccc(F)c(F)c1F	4.52
CCOC(=O)c1c(N2C(=O)[C@@H]3CC(C)=C(C)C[C@H]3C2=O)sc(C)c1C	4.56
CCN1C(=O)/C(=C2\SC(=S)N(Cc3ccc(OC)cc3)C2=O)c2cc(Br)ccc21	6.96
CCOc1cc([C@H]2[C@@H]3CN(C(=O)OC(C)(C)C)CC=C3C(C#N)=C(N)C2(C#N)C#N)ccc1OC(C)C	5.83

same assay, conditions: pH 6.5

SMILES	logD
O=C(CN1N=N[C@@H]2C(=O)N(c3ccc(Cl)cc3Cl)C(=O)[C@@H]21)Nc1ccccc1	4.3
CN(c1ccccc1)S(=O)(=O)c1ccc(C(=O)/N=c2/sc3cc([N+](=O)[O-])ccc3n2C)cc1	5.84
O=C(c1ccc(Cl)cc1)N(Cc1ccc(Cl)c(Cl)c1)N1C(=O)[C@@H]2CCCC[C@H]2C1=O	5.51
CC(C)(C)C1(C)O[C@H](C(N)=O)[C@H](C(N)=O)O1 (stereo partly drawn)	1.6
Cc1cccc(NC(=O)C[C@@H]2S/C(=N\c3c(C)cccc3C)N(C)C2=O)c1	4.75
O=C(CCCNC1=NS(=O)(=O)c2ccccc21)OCc1cc([N+](=O)[O-])cc2c1OCOC2	3.52
Cc1cc2c(cc1C)N[C@@H](c1cc3c(cc1Cl)OCO3)C1=C(CC(C)(C)CC1=O)N2	4.38
Cc1ccc(N2CC(=O)N(/N=C/c3cn(-c4ccccc4)nc3-c3ccc(Cl)cc3)CC2=O)cc1	6.14
C[C@H]1CCCN(C(=O)COC(=O)COc2cc(Cl)c(Cl)cc2Cl)C1	4.97
O=C(CCCCCN1C(=O)/C(=C\c2cccs2)SC1=S)N1CCOCC1	4.92
C=CCOc1cccc([C@@H]2c3c(oc4ccccc4c3=O)C(=O)N2c2nnc(C)s2)c1	4.52

same assay, conditions: pH 7.3

SMILES	logD
CCOc1ccc([C@@H]2Oc3nc(SC)nnc3-c3ccccc3N2C(=O)CC)cc1OC	3.95
CCOc1ccc(Br)cc1[C@H]1C2=C(CC(C)(C)CC2=O)Nc2ncnn21	3.85
CC1(C)[C@@]2(C)CC[C@]1(C(=O)Nc1ccccc1C(F)(F)F)c1nc3ccccc3nc12	6.01
CC[C@@H](SC1=Nc2ccccc2C2=N[C@@H](CC(C)C)C(=O)N12)C(=O)Nc1ccc2c(c1)OCO2	4.85
Cc1cc(C)nc(-n2nc(C)c3c2NC2=CC(C)(C)CC(=O)[C@H]2[C@@H]3c2ccco2)n1	4.34
CCOC(=O)C1=C(N)n2c(s/c(=C\c3ccc(C(=O)OC)cc3)c2=O)=C(C(=O)OC)C1c1ccc(C(=O)OC)cc1 (stereo not drawn)	6.95
O=C(Nc1ccccc1)[C@H]1CC(=O)N(Cc2ccccc2)/C(=N/c2ccc(F)cc2)S1	6
CCCn1c2ccccc2c2nnc(SCC(=O)N[C@H](C)c3ccccc3)nc21	4.36
O=C1C[C@@H](n2nc(-c3ccccc3)n(-c3ccccc3)c2=S)[C@@H]2CO[C@H]1O2	3.65

same assay, conditions: pH 8.0

SMILES	logD
CCCc1[nH]nc2c1[C@@]1(C(=O)N(CC(N)=O)c3ccccc31)C(C(=O)OC)=C(N)O2	4.48
CC[C@H]1CS/C(=N\c2cccc(C)c2)N1C(=O)CCN1C(=O)c2ccccc2C1=O	4.96

same assay, conditions: pH 10.0

SMILES	logD
Cc1cc(C(F)(F)F)nn1[C@@H](C)c1nnc(Nc2ccn(Cc3ccccc3)n2)s1	5.34
COC(=O)C1=C(C)N=C(C)C(C(=O)OC)[C@@H]1c1cccc(Cl)c1 (stereo partly drawn)	4.22
CC1=C(C(=O)OC[C@@H]2CCCO2)[C@H](c2cc([N+](=O)[O-])ccc2Cl)C2=C(CC(C)(C)CC2=O)N1	4.53
N#CC1=C(N)OC2=C(C(=O)C[C@H](c3ccccc3)C2)[C@H]1c1ccccc1F	3.07
CCOC(=O)C1=NN[C@@]2(c3cccc([N+](=O)[O-])c3)C(=O)N(c3cccc(C(F)(F)F)c3)C(=O)[C@H]12	4.73
CCn1c(SCC(=O)NC(C)(C)C)nnc1C1CCCCC1	3.2
CCCC[C@@]1(c2ccccc2)NC(=S)N(c2ccc(C)cc2)N1	5.1
CCOCc1c(C)cc(C)c([C@@H]2C(C#N)=C(N)Oc3[nH]nc(C)c32)c1C	4.09
CC(=O)/N=c1/sc2nc3ccccc3nc2n1N(C(C)=O)C(C)=O	1.1
NC(=O)c1cc(N2C(=O)[C@H]3CC=CC[C@@H]3C2=O)ccc1N1CCCCC1	3.68
COc1ccccc1[C@H]1CC(=O)C2=C(C1)NC(C)=C(C(=O)OC1CCCC1)[C@H]2c1ccc(OC(C)=O)cc1	5.81
CCOCCOC(=O)[C@H](C)n1cnc2sc3c(c2c1=O)CC[C@H](C)C3	4.25
CCOCCOC(=O)C1=C(C)NC2=C(C(=O)CCC2)[C@@H]1c1ccc(C)cc1	3.89
O=C1[C@@H]2C3c4ccccc4C(c4ccccc43)[C@@H]2C(=O)N1c1nccs1	3.83

same assay, conditions: pH 10.5

SMILES	logD
CCOc1cc(/C=N/n2cnc3sc(C)c(C)c3c2=O)cc(Br)c1OCC(N)=O	4.98
CCc1cc2c3c(c1)[C@]1(C(=O)N3C(C)(C)C=C2C)C(C#N)=C(N)OC2=C1C(=O)CC(C)(C)C2	5.39
COc1cccc(C2=NN=C3OC(N)=C(C#N)[C@H](c4cc(OC)c(OC)cc4Br)[C@@H]32)c1	4.52
Cn1c(N)c(C(=O)CSc2nc3sc4c(c3c(=O)n2Cc2ccccc2)CCC4)c(=O)n(C)c1=O	5.21
O=C(c1ccccc1)N1CCCC[C@@H](Sc2nnc3ccccn23)C1=O	3.14
